Laboratory results as given in patent publication US11364286B2, “Compositions and methods for the treatment of diseases involving mucin” (priority 2015, dated 2022).
Counter-ions that a name gives are not always drawn.

Assays:
[1] = system: human ovarian cancer cell line A2780; test: Cell viability, SRB assay, 3 days, A2780; type: cell-based; design: unit not given here; conditions: A2780, 3 days
Method: All cells were maintained at 37° C. The cytotoxic effects of cysteamine, bromelain and the chemotherapeutic agent cisplatin were assessed. Each agent was administered to the cells either alone or in combination with either or both of the other agents. All cells were treated for 72 hours with the reagents and the cell populations were assessed using the SRB assay. Where possible, IC50 and ICmax were calculated. […] Cells were subjected to various treatment regimens as indicated for 3 days before SRB assays were performed.

[2] = system: soft mucin from PMP patients; test: Disintegration of soft PMP mucin (weight of remnant mucin after incubation with the agents); type: biochemical, human; conditions: for effect of individual agents on mucin weight over time: Bromelain 300 & 200 μg/ml, NAC 250 mM, Cysteamine 200 mM alone, 0.5-3 h 37°C; for Percentage Disintegration of Mucin Samples: 0 μg/ml BR, negative = gain in weight
Method: Mucin samples from PMP patients were collected and stored under sterile conditions at −80° C. For experiments, the mucin was thawed to room temperature before use. One gram of soft mucin was transferred to a 50 ml centrifuge tube containing 10 ml of either 0.1 M TRIS buffer (pH. 7.0)—controls or similar arrangement containing various concentrations of cysteamine, bromelain or a mixture of the latter two reagents. The concentrations of bromelain investigated ranged from 100-300 μg/ml whilst for cysteamine it was 12.5, 25, 50, 100 and 200 mM. Stock solutions were prepared under sterile conditions in TRIS buffer pH adjusted to 7.0 using 0.1 M Sodium Hydroxide or 0.1 M Hydrochloric acid and the required quantities were added to the respective centrifuge tubes containing the mucin. The tubes were then transferred to a shaking water bath at 37° C. for 2 hours.
At the end of incubation, the remnant mucin was retrieved and weighed. The experiment was carried out using triplicate tubes and readings averaged. All experiments were performed in triplicate.
To a 50 ml centrifuge tube containing 1 g of mucin was added 10 ml of TRIS pH. 7.0 containing 300 μg/ml bromelain+250 mM NAC. Similarly, to 1 g of mucin was added 10 ml of TRIS buffer containing 200 μg/ml bromelain+200 mM cysteamine. For each time interval (0.5, 1.0, 1.5, 2.0, 2.5 and 3.0 h), a total of 6 tubes in triplicate were prepared. The controls contained, TRIS, Bromelain (300 μg/ml & 200 μg/ml), NAC (250 mM) and Cysteamine (200 mM) with mucin (also prepared for each time interval, in triplicates).
The tubes were incubated at 37° C., in a shaker water bath, sample tubes were retrieved at time interval of 0.5 hour and remnant mucin was carefully retrieved and weighed. Percentage weight lost was calculated as follows:
Percentage weight lost (disintegration)=[mucin weight (at 0 hr)−mucin weight (2 or 3 hr)]/mucin weight (at 0 hr).
The experiment was set up as outlined above in Examples 1 and 2 above, however using 10, 20, 40, 60, 80 & 100 μg/ml bromelain with varying concentrations of cysteamine (10, 20, 30, 40 & 50 mM) and the incubation was carried out at 37° C. in a shaker for 3 hours. The controls contained TRIS buffer, 10, 20, 40, 60, 80 & 100 μg/ml bromelain and 10, 20, 30, 40 & 50 mM cysteamine. Each tube was prepared in triplicate and readings averaged.
Experiments were set up as before using 1 g of mucin in a 50 ml centrifuge tube containing either TRIS buffer (pH 7.0), 50 μg/ml bromelain, 50 mM cysteamine or a combination of the last two agents. Six samples from each grades of mucin (soft, semi-hard and hard) were chosen for the experiment and the tubes were incubated in a shaker water bath at 37° C. for duration of 3 hours. The remnant mucin were carefully retrieved and weighed.

[3] = system: HT29 colorectal cancer cells; test: Proliferation, SRB assay, 72 hour culture, HT29; type: cell-based; conditions: individually or in combination
Method: (§1) 5000 cells of each cell line were plated in 96 well plates and grown for 48 hrs at 37° C. in humidified CO2 incubator. After this the medium was replaced with drugs, bromelain, cysteamine and cisplatin in alone or in various combinations. Control wells had medium only. Plates were further incubated for 72 hrs. At the end of incubation proliferation was determined by SRB assay.
(§2) Materials and Method: • 0.4% (w/v) SRB: 1.0 g SRB— Sulforhodamine B sodium salt—(#S1402, SIGMA) in 250 ml of 1% acetic acid (stored at room temperature) • 10% (w/v) TCA: 50 g of Trichloroacetic acid (#T9159, SIGMA) in 500 ml of Milli-Q water (stored at 4° c.) • 10 mM Tris Base: 0.6055 g Tris (Trizma® base, #T6066, SIGMA) in 500 ml of Milli-Q water (stored at 4° c.) • 1% acetic acid: 10 ml of acetic acid in 1000 ml of Milli-Q water.
(§3) 1. After an incubation period of 72 hours, the old medium was discarded and cells were fixed with 200 μl of 10% (w/v) ice-cold TCA (trichloroacetic acid) for 30 minutes at 4° C.
(§4) 2. The plate was washed in distilled water 5 times.
(§5) 3. 100 μl of 0.4% (w/v) sulphorhodamine (SRB) solution was added to each well of the dry 96-well plates and they were allowed staining at room temperature for 10 mins.
4. […]
(§6) 6. The plate was read in a microplate reader (PowerWaveX, BIO-TEK instruments, Inc, USA) with the working wavelength 570 nm. […]

[4] = system: human colorectal cancer cell line HT295M12; test: Cell viability, SRB assay, 3 days, HT295M12; type: cell-based; conditions: Column B=Cysteamine 1 mg/ml (FIG. 19)
Method: (§7) Mesothelioma (YOU and PET), gastric (KATO-III), Colorectal (LS174T and HT295m21), pancreatic (ASPC-1 and CFPAC) and ovarian (A2780) cell lines were grown in RPMI supplemented with 10% FBS, 100 U/ml penicillin and 100 μg/ml streptomycin. All cells were maintained at 37° C.
(§8) The cytotoxic effects of cysteamine, bromelain and the chemotherapeutic agent cisplatin were assessed. Each agent was administered to the cells either alone or in combination with either or both of the other agents. All cells were treated for 72 hours with the reagents and the cell populations were assessed using the SRB assay. Where possible, IC50 and ICmax were calculated.
Data from two independent experiments are represented as mean±SD (6 replicates for each treatment group).

YOU mesothelioma cells = test: Cell viability, SRB assay, 72 h, YOU cells; type: cell-based; conditions: Cysteamine single agent
Method: as §1, with “assay. […]” for “assay.”
as §6
(§9) The cytotoxic effects of cysteamine, bromelain and the chemotherapeutic agent cisplatin were assessed. […] All cells were treated for 72 hours with the reagents and the cell populations were assessed using the SRB assay. Where possible, IC50 and ICmax were calculated.
(§10) Using Chou and Tallarida Method (Tallarida R J. The interaction index: a measure of drug synergism. Pain 2002; 98: 163-168), the Interaction index (γ) was evaluated for a combination of 2 and 3 drugs (γ=1 (additive) (ADD); γ=<1 (synergistic) (SYN) and γ=>1 (sub-additive) (SUB)).

PET mesothelioma cells = test: Cell viability, SRB assay, 72 h, PET cells; type: cell-based; conditions: Cysteamine single agent
Method: as §1, with “assay. […]” for “assay.”
as §6, §9, §10

[5] = system: MKN45 gastric cancer cells; test: Proliferation, SRB assay, 72 hour culture, MKN45; type: cell-based, human; conditions: combination at the highest concentrations tested
Method: as §1, §2, §3, §4, §5
4. […]
as §6

[6] = system: human gastric cancer cell line KATO-III; test: Cell viability, SRB assay, 3 days, KATO-III; type: cell-based; conditions: Cysteamine only
Method: as §7, §8
Cells were subjected to various treatment regimens as indicated for 3 days before SRB assays were performed. Data are represented as mean±SD (6 replicates for each treatment group).

[7] = system: hard mucin from PMP patients; test: Disintegration of hard PMP mucin (weight of remnant mucin); type: biochemical, human; conditions: 50 mM cysteamine, alone or with 50 μg/ml bromelain; 37°C, 3 hours
[8] = FIG. 22A, 0.25 mg/ml, lowest of 0.25-1 mg/ml
[9] = FIG. 22A, 1 mg/ml, highest of 0.25-1 mg/ml
[10] = FIG. 22A, middle concentration of 0.25-1 mg/ml, value not given
[11] = FIG. 22B, 0.25 mg/ml, lowest of 0.25-1 mg/ml
[12] = FIG. 22B, 1 mg/ml, highest of 0.25-1 mg/ml
[13] = FIG. 22B, middle concentration of 0.25-1 mg/ml, value not given
[14] = FIG. 22C, 0.25 mg/ml, lowest of 0.25-1 mg/ml
[15] = FIG. 22C, 1 mg/ml, highest of 0.25-1 mg/ml
[16] = FIG. 22C, middle concentration of 0.25-1 mg/ml, value not given

SMILES	Mean Diff. (Holm-Sidak's multiple comparisons test), control vs. treatment [1, 8]	Mean Diff. (Holm-Sidak's multiple comparisons test), control vs. treatment [1, 9]	Mean Diff. (Holm-Sidak's multiple comparisons test), control vs. treatment [1, 10]	Mean Diff. (Holm-Sidak's multiple comparisons test), control vs. treatment [1, 11]	Mean Diff. (Holm-Sidak's multiple comparisons test), control vs. treatment [1, 12]	Mean Diff. (Holm-Sidak's multiple comparisons test), control vs. treatment [1, 13]	Mean Diff. (Holm-Sidak's multiple comparisons test), control vs. treatment [1, 14]	Mean Diff. (Holm-Sidak's multiple comparisons test), control vs. treatment [1, 15]	Mean Diff. (Holm-Sidak's multiple comparisons test), control vs. treatment [1, 16]	effect of individual agents on mucin weight over time [2]	also measured
NCCS [Cysteamine dihydrochloride]	55.20	94.04	74.31	–	–	–	–	–	–	–	–
NCCS [Cysteamine, cysteamine]	40.75	87.12	61.62	30.75	81.49	53.01	55.93	88.77	70.70	only showed hydration initially, with subsequent slight disintegration and hydration	effect of single agents on mucin weight ([2]; Bromelain 100, 200, 300 μg/ml or Cysteamine 12.5-200 mM as single agents, 2 h 37°C): only showed the mucin gaining weight, indicating hydration; Percentage Disintegration of Mucin Samples ([2]; CIS 12.5 mM, 2 h 37°C): −117%; Percentage Disintegration of Mucin Samples ([2]; CIS 25 mM, 2 h 37°C): −115%; Percentage Disintegration of Mucin Samples ([2]; CIS 50 mM, 2 h 37°C): −100%; Percentage Disintegration of Mucin Samples ([2]; CIS 100 mM, 2 h 37°C): −111%; Percentage Disintegration of Mucin Samples ([2]; CIS 200 mM, 2 h 37°C): −86%; inhibition of growth [3]: no or little effect; Mean Diff., Column A (control) vs. Column B [4]: 9.610; IC50 (as Cysteamine) (YOU mesothelioma cells): 560 µg/mL; ICmax (YOU mesothelioma cells; at 11.3 mg/ml cysteamine): 94% at 11.3 mg/ml; IC50 (as Cysteamine) (PET mesothelioma cells): 781 µg/mL; ICmax (PET mesothelioma cells; at 11.3 mg/ml cysteamine): 85% at 11.3 mg/ml; effect on in vitro growth [5]: no or little effect; Mean Diff., Column A (control) vs. Column B ([6]; 0.3 mg/ml (FIG. 20B, Table 14B)): −1.313; Mean Diff., Column A (control) vs. Column B ([6]; 0.5 mg/ml (FIG. 20A, Table 14A)): 21.10; Mean Diff., Column A (control) vs. Column B ([6]; 0.5 mg/ml (FIG. 20C, Table 14C)): 49.64; hydration of hard mucin [7]: dramatic percentage of hydration
N[C@@H](CS)C(=O)O [L-Cysteine]	–	–	–	10.30	51.11	25.30	–	–	–	–	–
N[C@@H](CCC(=O)N[C@@H](CS)C(=O)NCC(=O)O)C(=O)O [L-Glutathione reduced]	–	–	–	–	–	–	25.68	32.71	19.54	–	–
CC(=O)N[C@@H](CS)C(=O)O [NAC, N-acetyl cysteine]	20.45	23.92	18.80	15.35	17.73	9.290	25.62	30.51	18.03	only showed hydration initially, with subsequent slight disintegration and hydration	–
